Source: patent publication US8222404B2, “[1,2,4]Thiadiazin-3-yl acetic acid compound and methods of making the acetic acid compound” (Anadys Pharmaceuticals, Inc., priority 2008, dated 2012)
pEC50: −log10 of the molar value.

Tested on: HCV Huh-luc/neo-ET replicon cells
Experiment: Luciferase-Based HCV Replicon Assay (EC50 (1b))
Assay type: cell-based
Details: Hepatitis C virus, 72 hours exposure, luciferase activity
Summary of the method: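 EC50 (1b) derived from % inhibition of luciferase signal relative to untreated cells, background set by 100 nM BILN-2061 (protease inhibitor). Triplicate dose series added to replicon cells 24 h post-seeding; luminescence measured after 72 h compound exposure.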

| Compound | pEC50 |
| --- | --- |
| CS(=O)(=O)NCc1csc2c1S(=O)(=O)N=C(C1=C(O)C3CCCCCC3N(Cc3cc(F)c(F)c(F)c3)C1=O)N2 (racemic) [Example 140, (rac-cis)-N-{3-[4-Hydroxy-2-oxo-1-(3,4,5-trifluoro-benzyl)-2,4a,5,6,7,8,9,9a-octahydro-1H-cyclohepta[b]pyridin-3-yl]-1,1-dioxo-1,4-dihydro-1λ^6-thieno[2,3-e][1,2,4]thiadiazin-7-ylmethyl}-methanesulfonamide] | < 6.00 |
| CC(C)CCC1(C)CN(C2CCC2)C(=O)C(C2=NS(=O)(=O)c3c(CNS(C)(=O)=O)csc3N2)=C1O (racemic) [Example 20, rac-N-{3-[1-Cyclobutyl-4-hydroxy-5-methyl-5-(3-methyl-butyl)-2-oxo-1,2,5,6-tetrahydro-pyridin-3-yl]-1,1-dioxo-1,4-dihydro-1λ^6-thieno[2,3-e][1,2,4]thiadiazin-7-ylmethyl {-methanesulfonamide] | 6.00 to 7.00 |
| CS(=O)(=O)NCc1csc2c1S(=O)(=O)N=C(C1=C(O)[C@@H]3[C@H]4CC[C@H](C4)[C@@H]3N(C3CCCCC3)C1=O)N2 [Example 97, N-[3-((1R,2S,7R,8S)-3-Cyclohexyl-6-hydroxy-4-oxo-3-aza-tricyclo[6.2.1.0^2,7]undec-5-en-5-yl)-1,1-dioxo-1,4-dihydro-1λ^6-thieno[2,3-e][1,2,4]thiadiazin-7-ylmethyl]-methanesulfonamide] | 6.00 to 7.00 |
| CCCC1CC(O)=C(C2=NS(=O)(=O)c3c(CNS(C)(=O)=O)csc3N2)C(=O)N1Cc1ccc(F)cc1 (racemic) [Example 5, rac-N-{3-[1-(4-Fluoro-benzyl)-4-hydroxy-2-oxo-6-propyl-1,2,5,6-tetrahydro-pyridin-3-yl]-1,1-dioxo-1,4-dihydro-1λ^6-thieno[2,3-e][1,2,4]thiadiazin-7-ylmethyl}-methanesulfonamide] | 6.00 to 7.00 |
| CS(=O)(=O)NCc1csc2c1S(=O)(=O)N=C(C1=C(O)C3CCCCCC3N(Cc3ccc(F)cc3Cl)C1=O)N2 (racemic) [Example 121, (rac-cis)-N-{3-[1-(2-Chloro-4-fluoro-benzyl)-4-hydroxy-2-oxo-2,4a,5,6,7,8,9,9a-octahydro-1H-cyclohepta[b]pyridin-3-yl]-1,1-dioxo-1,4-dihydro-1λ^6-thieno[2,3-e][1,2,4]thiadiazin-7-ylmethyl}-methanesulfonamide] | < 6.00 |
| CS(=O)(=O)NCc1csc2c1S(=O)(=O)N=C(C1=C(O)[C@@H]3C4CCC(CC4)[C@@H]3N(Cc3ccc(F)cc3F)C1=O)N2 [Example 51, N-{3-[(2S,7R)-3-(2,4-Difluoro-benzyl)-6-hydroxy-4-oxo-3-aza-tricyclo[6.2.2.0^2,7]dodec-5-en-5-yl]-1,1-dioxo-1,4-dihydro-1λ^6-thieno[2,3-e][1,2,4]thiadiazin-7-ylmethyl}-methanesulfonamide] | 7.00 to 7.70 |
| CS(=O)(=O)NCc1csc2c1S(=O)(=O)N=C(C1=C(O)[C@@H]3[C@@H]4CC[C@@H](C4)[C@@H]3N(Cc3ccc(F)c(Cl)c3)C1=O)N2 [Example 95, N-{3-[(1 S,2S,7R,8R)-3-(3-Chloro-4-fluoro-benzyl)-6-hydroxy-4-oxo-3-aza-tricyclo[6.2.1.0^2,7]undec-5-en-5-yl]-1,1-dioxo-1,4-dihydro-1λ^6-thieno[2,3-e][1,2,4]thiadiazin-7-ylmethyl}-methanesulfonamide] | 7.00 to 7.70 |
| CC(C)(C)CCN1C(=O)C(C2=NS(=O)(=O)c3c(CNS(C)(=O)=O)csc3N2)=C(O)C2C3CCC(C4CC43)C21 (racemic) [Example 24, (rac-di-endo)-N-{3-[3-(3,3-Dimethyl-butyl)-6-hydroxy-4-oxo-3-aza-tetracyclo[6.3.2.0^2,7.0^9,11]tridec-5-en-5-yl]-1,1-dioxo-1,4-dihydro-1λ^6-thieno[2,3-e][1,2,4]thiadiazin-7-ylmethyl}-methanesulfonamide] | ≥ 8.30 |
| Cc1cc(CN2C(=O)C(C3=NS(=O)(=O)c4c(CNS(C)(=O)=O)csc4N3)=C(O)[C@@H]3[C@H]4CC[C@H](C4)[C@@H]32)ccc1F [Example 53, N-{3-[(1R,2S,7R,8S)-3-(4-Fluoro-3-methyl-benzyl)-6-hydroxy-4-oxo-3-aza-tricyclo[6.2.1.0^2,7]undec-5-en-5-yl]-1,1-dioxo-1,4-dihydro-1λ^6-thieno[2,3-e][1,2,4]thiadiazin-7-ylmethyl}-methanesulfonamide] | 7.70 to 8.30 |
| CS(=O)(=O)NCc1csc2c1S(=O)(=O)N=C(C1=C(O)[C@@H]3[C@@H]4CC[C@@H](C4)[C@@H]3N(Cc3ccsc3)C1=O)N2 [Example 58, N-[3-((1S,2S,7R,8R)-6-Hydroxy-4-oxo-3-thiophen-3-ylmethyl-3-aza-tricyclo[6.2.1.0^2,7]undec-5-en-5-yl)-1,1-dioxo-1,4-dihydro-1λ^6-thieno[2,3-e][1,2,4]thiadiazin-7-ylmethyl]-methanesulfonamide] | 7.70 to 8.30 |
| CS(=O)(=O)NCc1csc2c1S(=O)(=O)N=C(C1=C(O)[C@@H]3C4CCC(CC4)[C@@H]3NC1=O)N2 [Example 82, N-[3-((2S,7R)-6-Hydroxy-4-oxo-3-aza-tricyclo[6.2.2.0^2,7]dodec-5-en-5-yl)-1,1-dioxo-1,4-dihydro-1λ^6-thieno[2,3-e][1,2,4]thiadiazin-7-ylmethyl]-methanesulfonamide] | < 6.00 |
| CS(=O)(=O)NCc1csc2c1S(=O)(=O)N=C(C1=C(O)C3CCCCCC3N(CC3CCCCC3)C1=O)N2 (racemic) [Example 105, (rac-cis)-N-[3-(1-Cyclohexylmethyl-4-hydroxy-2-oxo-2,4a,5,6,7,8,9,9a-octahydro-1H-cyclohepta[b]pyridin-3-yl)-1,1-dioxo-1,4-dihydro-1λ^6-thieno[2,3-e][1,2,4]thiadiazin-7-ylmethyl]-methanesulfonamide] | 6.00 to 7.00 |
| CC(C)CCN1C(=O)C(C2=NS(=O)(=O)c3c(CNS(C)(=O)=O)csc3N2)=C(O)[C@@H]2C3CCC(CC3)[C@@H]21 [Example 71, N-{3-[(2S,7R)-6-Hydroxy-3-(3-methyl-butyl)-4-oxo-3-aza-tricyclo[6.2.2.0^2,7]dodec-5-en-5-yl]-1,1-dioxo-1,4-dihydro-1λ^6-thieno[2,3-e][1,2,4]thiadiazin-7-ylmethyl]-methanesulfonamide] | 7.70 to 8.30 |
| CS(=O)(=O)NCc1csc2c1S(=O)(=O)N=C(C1=C(O)C3CCCCC3N(Cc3ccccc3)C1=O)N2 (racemic) [Example 130, (rac-cis)-N-[3-(1-Benzyl-4-hydroxy-2-oxo-1,2,4a,5,6,7,8,8a-octahydro-quinolin-3-yl)-1,1-dioxo-1,4-dihydro-1λ^6-thieno[2,3-e][1,2,4]thiadiazin-7-ylmethyl]-methanesulfonamide] | 6.00 to 7.00 |
| CS(=O)(=O)NCc1csc2c1S(=O)(=O)N=C(C1=C(O)[C@@H]3C4CCC(CC4)[C@@H]3N(Cc3ccc(F)cc3)C1=O)N2 [Example 91, N-{3-[(2S,7R)-3-(4-Fluoro-benzyl)-6-hydroxy-4-oxo-3-aza-tricyclo[6.2.2.0^2,7]dodec-5-en-5-yl]-1,1-dioxo-1,4-dihydro-1λ^6-thieno[2,3-e][1,2,4]thiadiazin-7-ylmethyl}-methanesulfonamide] | ≥ 8.30 |
| CS(=O)(=O)NCc1csc2c1S(=O)(=O)N=C(C1=C(O)C3CCCCCC3N(Cc3ccc(F)cc3)C1=O)N2 (racemic) [Example 120, (rac-cis)-N-{3-[1-(4-Fluoro-benzyl)-4-hydroxy-2-oxo-2,4a,5,6,7,8,9,9a-octahydro-1H-cyclohepta[b]pyridin-3-yl]-1,1-dioxo-1,4-dihydro-1λ^6-thieno[2,3-e][1,2,4]thiadiazin-7-ylmethyl}-methanesulfonamide] | 7.00 to 7.70 |
